ChEMBL document CHEMBL6092191, “Advancing Cancer Immunotherapy through Engineering New PD-L1 Degraders: A Comprehensive Study from Small Molecules to PD-L1-Specific Peptide-Drug Conjugates” (J Med Chem, 2024)
Activity calls are given as the source filed them. The rule behind the calls is not given here.

Assays:
[1] = Toxicity in C57BL/6 mouse model xenografted with […] cells assessed as obvious damage in heart at 10 mg/kg, ip administered daily for 10 days by H and E staining based analysis; format: organism-based; details: in vivo, 240 h, time 10 day
[2] = Toxicity in C57BL/6 mouse model xenografted with […] cells assessed as body weight loss at 10 mg/kg, ip administered daily for 10 days; format: organism-based; details: in vivo, 240 h, time 10 day
[3] = tested on: HEK-293T; assay: Antiproliferative activity against HEK293T cells at 10 uM incubated for 4 days; format: toxicity, cell-based; details: human, 96 h, time 4 day
[4] = tested on: NCI-H1299; assay: Effect on IFN-gamma-induced PD-L1 mRNA expression in human NCI-H1299 cells at 10 uM by qRT-PCR analysis; format: functional, cell-based
[5] = tested on: NCI-H460; assay: Antiproliferative activity against human NCI-H460 cells at 10 uM measured after 4 days by MTT assay; format: functional, cell-based; details: time 4.0 day
[6] = tested on: Lewis lung carcinoma cell line; assay: Anticancer activity against Lewis lung carcinoma cells xenografted in C57BL/6 mouse model at 10 mg/kg, ip administered daily for 10 days relative to control; format: functional; details: 240 h, time 10 day, read-out: TGI
[7] = tested on: Lewis lung carcinoma cell line; assay: Antitumor T-cell immune response in Lewis lung carcinoma cells xenografted in C57BL/6 mouse model assessed as increase in ratio of CD8+ to CD4+ T cells in tumor at 5 mg/kg, ip administered daily for 8 days by flow cytometry; format: functional, organism-based; details: time 8.0 day
[8] = biological target: COP9 signalosome complex subunit 5 (Homo sapiens) (UniProt Q92905); assay: Induction of PD-L1 degradation in human NCI-H460 cells at 10 uM pretreated with compound followed by CHX incubation upto 8 hrs by Western blot analysis; format: cell-based
[9] = tested on: PC-9; assay: Effect on PD-L1 mRNA level in human PC-9 cells at 10 uM incubated for 24 hrs by qRT-PCR analysis; format: functional, cell-based
[10] = biological target: COP9 signalosome complex subunit 5 (Homo sapiens) (UniProt Q92905); assay: Induction of PD-L1 degradation in human NCI-H460 cells at 10 uM by Western blot analysis; format: cell-based; details: time <= 36.0 hrs
[11] = biological target: COP9 signalosome complex subunit 5 (Homo sapiens) (UniProt Q92905); assay: Induction of PD-L1 degradation in human NCI-H460 cells incubated for 24 hrs by Western blot analysis; format: cell-based; details: dose <= 100.0 µM
[12] = tested on: Lewis lung carcinoma; assay: Effect on PD-L1 mRNA level in Lewis lung carcinoma cells at 10 uM incubated for 24 hrs by qRT-PCR analysis; format: functional, cell-based; details: Mus musculus
[13] = biological target: COP9 signalosome complex subunit 5 (Homo sapiens) (UniProt Q92905); assay: Induction of PD-L1 degradation in […] cells at 10 uM by Western blot analysis; format: cell-based; details: Lewis lung carcinoma cell line, time <= 36.0 hrs
[14] = biological target: COP9 signalosome complex subunit 5 (Homo sapiens) (UniProt Q92905); assay: Binding affinity to CSN5 in HEK293T cell lysate by Western blot analysis; format: subcellular
[15] = tested on: NCI-H460; assay: Effect on PD-L1 mRNA level in human NCI-H460 cells at 10 uM incubated for 24 hrs by qRT-PCR analysis; format: functional, cell-based
[16] = biological target: COP9 signalosome complex subunit 5 (Homo sapiens) (UniProt Q92905); assay: Induction of PD-L1 degradation in human NCI-H460 cells overexpressing CSN5 by Western blot analysis; format: cell-based
[17] = tested on: Lewis lung carcinoma cell line; assay: Anticancer activity against Lewis lung carcinoma cells xenografted in C57BL/6 mouse model assessed as decrease in Ki-67 level at 10 mg/kg, ip administered daily for 10 days by IHC analysis; format: functional, organism-based; details: time 10.0 day

Chain of COP9 signalosome complex subunit 5 (Homo sapiens) (Q92905 2-334 limits assumed, one chain of several): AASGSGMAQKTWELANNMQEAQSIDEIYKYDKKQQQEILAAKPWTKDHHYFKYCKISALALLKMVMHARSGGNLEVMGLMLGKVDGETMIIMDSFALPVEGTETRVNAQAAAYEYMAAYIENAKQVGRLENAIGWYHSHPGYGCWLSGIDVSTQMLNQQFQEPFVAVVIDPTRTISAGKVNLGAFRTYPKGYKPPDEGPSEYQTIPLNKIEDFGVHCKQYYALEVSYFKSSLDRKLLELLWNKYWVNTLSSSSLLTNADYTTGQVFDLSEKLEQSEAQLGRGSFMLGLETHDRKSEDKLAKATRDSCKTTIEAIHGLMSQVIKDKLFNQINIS

Activity [8]: inactive
Activity [10]: Time-dependent-effect
Activity [11]: Dose-dependent-effect
Activity [13]: Time-dependent-effect
Activity [14]: Active
Activity [16]: inactive
SMILES: COc1cc2c(cc1OC)-c1cc3ccc(OC)c(OCCN)c3c[n+]1CC2.[Cl-]
Activity [1]: Non-toxic
Activity [2]: Non-toxic
Activity [3]: Non-toxic
Activity [4]: inactive
Activity [5]: inactive
inhibition in vivo at 10 mg/kg [6]: 71%
Activity [7]: Active
Activity [9]: inactive
Activity [12]: inactive
Activity [15]: inactive
Activity [17]: Active
